In patent US20080033031A1, “ANTIBIOTIC COMPOUNDS, COMPOSITIONS AND METHODS OF TREATMENT” (priority 2004, published 2008):
≈ marks a conversion by molar mass, not a printed value. Read-outs that look alike come from different tables or passages of the source.

Key:
S. aureus ATCC 29213 = experiment: MIC against S. aureus ATCC 29213; type: cell-based, Staphylococcus aureus
Method: (§1) The microbiological activity of clindamycin analogs was evaluated by measuring the minimum inhibitory concentrations (MIC) of each compound against Staphylococcus aureus (S. aureus) and Propionibacterium acnes (P. acnes). These two microorganisms were selected, as they are commonly known to be the contributing factors for acne. The compounds evaluated were the following: • a. […] Clindamycin sulfone (CSO2) and its salts • d. Clindamycin phosphate • e.

P. acnes ATCC 11827 = experiment: MIC against P. acnes ATCC 11827; type: cell-based, Propionibacterium acnes
Method: as §1

S. aureus ATCC 6538 = experiment: MIC against S. aureus ATCC 6538; type: cell-based; settings: Staphylococcus aureus, ATCC6538
Method: as §1

P. acnes ATCC 1127 = experiment: MIC against P. acnes ATCC 1127; type: cell-based, Propionibacterium acnes; settings: Cutibacterium acnes, ATCC1127
Method: as §1

[1] = Stability studies with benzoyl peroxide in buffer solutions; type: physicochemical; settings: 1% analog with 5% BPO, pH 3 buffer, 50° C.
Method: The concentrations of each of the clindamycin analogs and BPO in the mixtures were 1% (w/w) and 5% (w/w), respectively.
Samples were prepared by dissolving each of the clindamycin analogs and suspending the BPO powder in the buffer solutions of different pHs. Samples were placed either at RT or at 50° C. Samples were pulled at time intervals and tested for the appropriate clindamycin analog and pH.
The figures show the plots of the percent remaining (% of initial) of the clindamycin analog versus time. The percent of initial is obtained by normalizing the concentration at each time point to the initial concentration.

[2] = Staphylococcus aureus, ATCC29213, read-out: MIC
[3] = Cutibacterium acnes, ATCC11827, read-out: MIC

SMILES: CCC[C@@H]1C[C@@H](C(=O)N[C@@H]([C@H]2O[C@H]([S+](C)[O-])[C@H](O)[C@@H](O)[C@H]2O)[C@H](C)Cl)N(C)C1.Cl (some centres unmarked) [CSO A HCl]
- MIC (S. aureus ATCC 29213): 16 µg/mL
- MIC (P. acnes ATCC 11827): 8 µg/mL

SMILES: CCCC1CC(C(=O)NC(C(C)Cl)C2OC([S+](C)[O-])C(O)C(O)C2O)N(C)C1.O=C(O)CCC(=O)O (centres unmarked) [CSO A succinate]
- MIC (S. aureus ATCC 29213): 16 µg/mL
- MIC (P. acnes ATCC 11827): 16 µg/mL

SMILES: CCCC1CC(C(=O)NC(C(C)Cl)C2OC(S(C)(=O)=O)C(O)C(O)C2O)N(C)C1.O=S(=O)(O)O (centres unmarked) [CSO2 sulfate]
- MIC (S. aureus ATCC 29213): 1 µg/mL
- MIC (P. acnes ATCC 11827): 0.5 µg/mL

SMILES: CCCC1CC(C(=O)NC(C(C)Cl)C2OC([S+](C)[O-])C(O)C(O)C2O)N(C)C1.O=C(O)C=CC(=O)O (centres unmarked) [CSO A fumarate]
- MIC (S. aureus ATCC 29213): 16 µg/mL
- MIC (P. acnes ATCC 11827): 8 µg/mL

SMILES: CCCC1CC(C(=O)NC(C(C)Cl)C2OC(S(C)(=O)=O)C(O)C(O)C2O)N(C)C1.Cl (centres unmarked) [CSO2 HCl]
- MIC (S. aureus ATCC 29213): 1 µg/mL
- MIC (P. acnes ATCC 11827): 0.5 µg/mL

SMILES: CCC[C@@H]1C[C@@H](C(=O)N[C@@H]([C@H]2O[C@H](SC)[C@H](OP(=O)(O)O)[C@@H](O)[C@H]2O)[C@H](C)Cl)N(C)C1 [Clindamycin phosphate USP, Clindamycin phosphate, reference compound]
- MIC (S. aureus ATCC 6538): 200 µg/mL
- MIC (P. acnes ATCC 1127): 200 µg/mL
- MIC (S. aureus ATCC 29213; [2]): 16 to 32 µg/mL
- MIC (P. acnes ATCC 11827; [3]): 2 to 4 µg/mL

SMILES: CCCC1CC(C(=O)NC(C(C)Cl)C2OC([S+](C)[O-])C(O)C(O)C2O)N(C)C1.Cl (centres unmarked) [CSO B HCl]
- MIC (S. aureus ATCC 29213): 2 µg/mL
- MIC (P. acnes ATCC 11827): 0.5 µg/mL

SMILES: CCCC1CC(C(=O)NC(C(C)Cl)C2OC([S+](C)[O-])C(O)C(O)C2O)N(C)C1.O=C(O)c1ccccc1 (centres unmarked) [CSO B benzoate]
- MIC (S. aureus ATCC 29213): 2 µg/mL
- MIC (P. acnes ATCC 11827): 0.5 µg/mL

SMILES: CC[C@H]1OC(=O)[C@H](C)[C@@H](O[C@H]2C[C@@](C)(OC)[C@@H](O)[C@H](C)O2)[C@H](C)[C@@H](O[C@@H]2O[C@H](C)C[C@H](N(C)C)[C@H]2O)[C@](C)(O)C[C@@H](C)C(=O)[C@H](C)[C@@H](O)[C@]1(C)O [Erythromycin USP, Erythromycin, reference compound]
- MIC (S. aureus ATCC 6538): < 0.8 µg/mL
- MIC (P. acnes ATCC 1127): 1.6 µg/mL (≈ 2.18 µM)
- MIC (S. aureus ATCC 29213; [2]): 0.25 to 0.5 µg/mL (≈ 0.341 to 0.681 µM)
- MIC (P. acnes ATCC 11827; [3]): 0.062 µg/mL (≈ 0.0845 µM)

SMILES: CCCC1CC(C(=O)NC(C(C)Cl)C2OC([S+](C)[O-])C(O)C(O)C2O)N(C)C1.O=C(O)CC(O)(CC(=O)O)C(=O)O (centres unmarked) [CSO B citrate]
- MIC (S. aureus ATCC 29213): 2 µg/mL
- MIC (P. acnes ATCC 11827): 0.5 µg/mL

SMILES: CCCC1CC(C(=O)NC(C(C)Cl)C2OC([S+](C)[O-])C(O)C(O)C2O)N(C)C1.O=C(O)C=CC(=O)O (centres unmarked) [CSO B fumarate]
- MIC (S. aureus ATCC 29213): 2 µg/mL
- MIC (P. acnes ATCC 11827): 0.5 µg/mL

SMILES: CCCC1CC(C(=O)NC(C(C)Cl)C2OC([S+](C)[O-])C(O)C(O)C2O)N(C)C1.O=C(O)C=CC(=O)O (centres unmarked) [CSO A maleate]
- MIC (S. aureus ATCC 29213): 16 µg/mL
- MIC (P. acnes ATCC 11827): 16 µg/mL

SMILES: CCC[C@@H]1CC(C(=O)NC(C(C)Cl)[C@H]2O[C@H](S(C)(=O)=O)[C@H](O)[C@@H](O)[C@H]2O)N(C)C1 (some centres unmarked) [CSO2, Clindamycin sulfone]
- MIC (S. aureus ATCC 29213; [2]): 1 to 2 µg/mL (≈ 2.19 to 4.38 µM)
- MIC (P. acnes ATCC 11827; [3]): 0.5 to 1 µg/mL (≈ 1.09 to 2.19 µM)
- remained in the solution (% of initial) ([1]; after 8 weeks of storage): about 85%
- remaining in the samples (% of initial) ([1]; after 12 weeks of storage): about 70%
